Test results reported in US20150125509A1, “TREATMENT OF FISH POPULATIONS WITH LUFENURON” (priority 2012, published 2015).

Test system: L. salmonis
Assay: Example 2: in-feed treatment in fresh water hatchery, natural sea louse infestation after sea transfer, L. salmonis counts
Type: in vivo, Lepeophtheirus salmonis on Atlantic salmon (Salmo salar)
Conditions: for L. salmonis: all stages, Treated, counts / L. salmonis: pre- & adults, Efficacy / L. salmonis: pre- & adults, Treated, counts: fresh water
Procedure: Three groups of 400 Atlantic salmon (Salmo salar) of average weight 80 g were treated with medicated pellets containing lufenuron to deliver doses equivalent to 1, 5 and 10 mg/kg/day over 7 consecutive days. A fourth group containing 400 salmon of average weight 80 g was added to the study as a non-treated control group. The medicated pellets were prepared by coating commercially available fish feed pellets with a lufenuron-containing pre-mix to reach a content of 0.005, 0.025 and 0.05% (w/w) lufenuron in the fish feed. The groups were randomized and the identity of the feeds blinded to the site staff. The treatment was undertaken in a fresh water hatchery and the fish transferred to sea water within 7 days of completion of treatment.
On transfer to sea each group was split into two cages and all cage groups were maintained in separate randomized cages.
After treatment, the fish were exposed to natural sea louse infestation. During the study the temperature varied between 1.9 and 8.1° C. Fish weights were assessed at allocation to cages, again approximately 2 weeks after the sea transfer and then at 4 weekly intervals. Sea louse numbers were assessed at approximately 2 weeks after the sea transfer and then at 4 weekly intervals. The numbers of chalimus, pre-adults and adult male, mobile and mature female L. salmonis were recorded for each fish. No distinction was made between chalimus stages I-IV or between pre-adult and adult male stages. Total numbers of Caligus elongatus were also recorded but no significant infestation was established to enable an assessment of efficacy.
Efficacy was calculated using the formula:
% Efficacy=100−(100×mean of treatment group/mean of control).

[1] = 1 mg/kg/day 7 days in-feed, 15 days post sea transfer
[2] = 1 mg/kg/day 7 days in-feed, 42 days post sea transfer
[3] = 1 mg/kg/day 7 days in-feed, 76 days post sea transfer
[4] = 1 mg/kg/day 7 days in-feed, 98 days post sea transfer
[5] = 1 mg/kg/day 7 days in-feed, 125 days post sea transfer
[6] = 1 mg/kg/day 7 days in-feed, 154 days post sea transfer
[7] = 5 mg/kg/day 7 days in-feed, 15 days post sea transfer
[8] = 5 mg/kg/day 7 days in-feed, 76 days post sea transfer
[9] = 5 mg/kg/day 7 days in-feed, 98 days post sea transfer
[10] = 5 mg/kg/day 7 days in-feed, 125 days post sea transfer
[11] = 5 mg/kg/day 7 days in-feed, 154 days post sea transfer
[12] = 10 mg/kg/day 7 days in-feed, 15 days post sea transfer
[13] = 10 mg/kg/day 7 days in-feed, 76 days post sea transfer
[14] = 10 mg/kg/day 7 days in-feed, 98 days post sea transfer
[15] = 10 mg/kg/day 7 days in-feed, 125 days post sea transfer
[16] = 10 mg/kg/day 7 days in-feed, 154 days post sea transfer

SMILES: O=C(NC(=O)c1c(F)cccc1F)Nc1cc(Cl)c(OC(F)(F)C(F)C(F)(F)F)cc1Cl (stereo not shown) [lufenuron, N-{[2,5-Dichlor-4-(1,1,2,3,3,3-hexafluorpropoxy)phenyl]carbamoyl}-2,6-difluorbenzamid]
- L. salmonis: all stages, Treated, counts [1]: 0
- L. salmonis: pre- & adults, Efficacy [1]: 100%
- L. salmonis: pre- & adults, Treated, counts [1]: 0
- L. salmonis: all stages, Treated, counts [2]: 0
- L. salmonis: pre- & adults, Efficacy [2]: 100%
- L. salmonis: pre- & adults, Treated, counts [2]: 0
- L. salmonis: all stages, Treated, counts [3]: 0.1
- L. salmonis: pre- & adults, Efficacy [3]: 96.2%
- L. salmonis: pre- & adults, Treated, counts [3]: 0.1
- L. salmonis: all stages, Treated, counts [4]: 0.8
- L. salmonis: pre- & adults, Efficacy [4]: 83.9%
- L. salmonis: pre- & adults, Treated, counts [4]: 0.45
- L. salmonis: all stages, Treated, counts [5]: 0.4
- L. salmonis: pre- & adults, Efficacy [5]: 92.9%
- L. salmonis: pre- & adults, Treated, counts [5]: 0.3
- L. salmonis: all stages, Treated, counts [6]: 0.3
- L. salmonis: pre- & adults, Efficacy [6]: 92.8%
- L. salmonis: pre- & adults, Treated, counts [6]: 0.3
- L. salmonis: all stages, Treated, counts [7]: 0.1
- L. salmonis: pre- & adults, Efficacy [7]: 100%
- L. salmonis: pre- & adults, Treated, counts [7]: 0
- L. salmonis: all stages, Treated, counts [8]: 0
- L. salmonis: pre- & adults, Efficacy [8]: 100%
- L. salmonis: pre- & adults, Treated, counts [8]: 0
- L. salmonis: all stages, Treated, counts [9]: 0.1
- L. salmonis: pre- & adults, Efficacy [9]: 96.4%
- L. salmonis: pre- & adults, Treated, counts [9]: 0.1
- L. salmonis: all stages, Treated, counts [10]: 0
- L. salmonis: pre- & adults, Efficacy [10]: 100%
- L. salmonis: pre- & adults, Treated, counts [10]: 0
- L. salmonis: all stages, Treated, counts [11]: 0
- L. salmonis: pre- & adults, Efficacy [11]: 100%
- L. salmonis: pre- & adults, Treated, counts [11]: 0
- L. salmonis: all stages, Treated, counts [12]: 0.5
- L. salmonis: pre- & adults, Efficacy [12]: 100%
- L. salmonis: pre- & adults, Treated, counts [12]: 0
- L. salmonis: all stages, Treated, counts [13]: 0
- L. salmonis: pre- & adults, Efficacy [13]: 100%
- L. salmonis: pre- & adults, Treated, counts [13]: 0
- L. salmonis: all stages, Treated, counts [14]: 0
- L. salmonis: pre- & adults, Efficacy [14]: 100%
- L. salmonis: pre- & adults, Treated, counts [14]: 0
- L. salmonis: all stages, Treated, counts [15]: 0
- L. salmonis: pre- & adults, Efficacy [15]: 100%
- L. salmonis: pre- & adults, Treated, counts [15]: 0
- L. salmonis: all stages, Treated, counts [16]: 0
- L. salmonis: pre- & adults, Efficacy [16]: 100%
- L. salmonis: pre- & adults, Treated, counts [16]: 0
- protected the fish against sea louse infestation until at least (time post-treatment) (Example 2, 1 mg/kg treatment): five
- efficacy over the protection period (Example 2, 1 mg/kg treatment, until at least five month post-treatment): approximately 90%
- protected the fish against sea louse infestation until (time post-treatment) (Example 2, 5 mg/kg treatment, study continues): 5 months
- protected the fish against sea louse infestation up to (time post-treatment) (Example 2, 10 mg/kg treatment, study continues): 5 months
